Data on two molecules can be found in patent US20250195498A1, “INHIBITOR OF CELLULAR PURINE NUCLEOTIDE SALVAGE PATHWAY ENZYME FOR USE IN THE TREATMENT AND/OR PREVENTION OF HELICOBACTER PYLORI INFECTION AND/OR DISEASE ASSOCIATED WITH SUCH INFECTION AND PHARMACEUTICAL COMPOSITION COMPRISING THE SAME” (UNIWERSYTET WARSZAWSKI, priority 2022, published 2025).

Format in all cases: cell-based, Helicobacter pylori
Assay [1] relates to H. pylori strain M26 (MTZ + CLR resistant). The experiment in a line: Growth curve method / MIC, resistant strain M26. The note with it: Helicobacter pylori, strain M26, MTZ + CLR resistant. The procedure: (§1) The representative PNP inhibitor from H. pylori included in this study was immucillin A. The experiment was conducted using the growth curve method (two-fold serial dilutions in liquid medium). The tested H. pylori strains were cultured in Petri dishes with BHI solid medium supplemented with 10% FBS and 1% H. pylori Selective Supplement antibiotic kit, in anaerostats under microaerophilic conditions (5% 02, 10% CO2, 85% N2) at 37° C. for 3 days. Liquid culture of H. pylori was conducted overnight with shaking at 37° C. under microaerophilic conditions in BHI medium supplemented with 10% FBS and 1% H. pylori Selective Supplement antibiotic kit. Subsequently, for the essential experiment of determining the minimum inhibitory concentration (MIC), double strengthened liquid BHI medium was prepared, that is, supplemented with 20% FBS and a 2% set of H. pylori Selective Supplement antibiotics.
(§2) Bacterial proliferation inhibition experiments were carried out in 24-deep-well 2 ml flat-bottomed plates at a solution volume per well of 0.5 ml. In a single well, double strengthened (relative to the concentration planned for testing) solutions of the test inhibitor and double strengthened liquid BHI medium inoculated with H. pylori (10^4-10^5 CFU/ml in the final volume in the well, corresponding to the optical density of the culture OD600=0.05) were mixed together in a 1:1 ratio.
(§3) Kanamycin at a concentration of 25 μg/ml (Irie et al., 1997) was used as a positive control, while Mili-Q deionized water and BHI medium not inoculated with bacteria were used as negative controls. Plates were shaken at 37° C., under microaerophilic conditions. […] After 24 hours, the OD600 of samples containing the negative control, i.e. with Mili-Q deionized water, was about 1.2-1.4, corresponding to a bacterial concentration of about […].
(§4) In addition, the method proposed by Knezevic et al. (2018) was used to check whether the observed OD600 was from live bacterial cells. For this purpose, an equal volume of Christensen's double strength urea broth (that is, containing twice the concentration of all components) was added to the wells after incubation, and the plates were additionally incubated for 4 hours in an oxygen atmosphere at 37° C. During incubation, in wells with urease produced by live bacteria, urea is converted to ammonia and carbon dioxide, changing the pH of the solution and thus the colour of the phenol red indicator contained in the medium (from orange to purple).
(§5) All experiments were performed in triplicate.
(§6) The antibacterial activity of two compounds, mefloquine (in the form of hydrochloride) and quinine, described in the literature as potent in vitro inhibitors of the PNP enzyme from Plasmodium falciparum (Dziekan et al., 2019), was tested. Using a two-fold serial dilution method in liquid medium (as described in Example 3), the MIC values for mefloquine and quinine were determined against clinical H. pylori strains resistant to MTZ, CLR and MTZ+CLR (M26, M91, M92 and M93), as well as the reference H. pylori strain 26695. Four clinical H. pylori strains isolated from adults, from primary infections (the subjects had never previously been treated against H. pylori infection) were tested. These strains come from the collection of the Department of Microbiology of the Medical University of Wroclaw and were obtained due to collaboration with Prof. Grażyna Gościniak, MD, PhD. The tested compounds belong to organic substances and are soluble in DMSO. The maximum tested concentration of quinine in H. pylori culture was 0.56 mM, and that of mefloquine was 2.25 mM. […] On each occasion, the effect of DMSO alone on the growth of the H. pylori strains tested was also checked. […] Kanamycin was used as a positive control and Mili-Q deionised water as a negative control. All experiments were carried out in triplicate. […]

The next assay has as its system H. pylori strain 26695. The experiment in a line: Growth curve method / MIC in liquid culture, strain 26695. The note with it: Helicobacter pylori. In outline: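 Two-fold serial dilutions in BHI liquid medium with 10% FBS and 1% H. pylori Selective Supplement, inoculated at 10^4-10^5 CFU/ml (OD600=0.05); shaken 24 h at 37° C. under microaerophilic conditions (5% O2, 10% CO2, 85% N2). MIC from OD600 growth; viability confirmed by 4 h urease/phenol red colour change; triplicate.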

The subject of another assay is H. pylori strain P12. The experiment in a line: Growth curve method / MIC, strain P12. The note with it: Helicobacter pylori. The procedure:
as §1, §2, §3, §4, §5
(§7) Inhibition by PLP and its metabolic precursors of the growth of H. pylori strains: 26695, N6 and P12 in culture was investigated using the growth curve method as described in Example 3. From these experiments, the minimum inhibitory concentration was determined as the lowest concentration of a compound that inhibits the visible growth of the bacteria, compared to growth in control samples without the tested compounds. All experiments were carried out in triplicate.

Assay [2] concerns H. pylori strain M93 (MTZ resistant). As to the kind of experiment: Growth curve method / MIC, resistant strain M93. The note with it: Helicobacter pylori, strain M93, MTZ resistant. How it is done:
as §1, §2, §3, §4, §5, §6

In assay [3] the test system is H. pylori strain M92 (CLR resistant). As to the kind of experiment: Growth curve method / MIC, resistant strain M92. The note with it: Helicobacter pylori, strain M92, CLR resistant. How it is done: as §1, §2, §3, §4, §5, §6
The next assay concerns H. pylori strain N6. As to the kind of experiment: Growth curve method / MIC, strain N6. The note with it: Helicobacter pylori. How it is done:
as §1, §2, §3, §4, §5, §7

Where [4] appears, read: strain 26695, wild-type, read-out: MIC (Table 7).
Setting [5] is: strain N6, wild-type, read-out: MIC (Table 7).

Values after ≈ are worked out from the molar mass of the structure shown. Values joined by “and” are separate entries in the source; they are usually repeats but may differ in a detail not shown here. Equal values may be shown once. Read-outs that look alike come from different tables or passages of the source.

Broadly, the MIC is the least concentration at which growth counts as inhibited. With `Cc1ncc(CO)c(C=O)c1O.Cl` [PI-h, pyridoxal hydrochloride], the minimal inhibitory concentration (MIC) was 255 µg/mL and 1250 µM in assay [1] (read-out: MIC); 1.25 µM in assay [1] (read-out: MIC (Table 7)); 2.5 µM in the assay on H. pylori strain 26695 (setting [4]); 509 µg/mL and 2500 µM with H. pylori strain 26695 (strain 26695, read-out: MIC); 2.5 µM with H. pylori strain P12 (P12, read-out: MIC (Table 7)); 509 µg/mL and 2500 µM with H. pylori strain P12 (strain P12, read-out: MIC). Also, the MIC is 255 µg/mL and 1250 µM in assay [2] (read-out: MIC); 1.25 µM in assay [2] (read-out: MIC (Table 7)); 509 µg/mL and 2500 µM in assay [3] (read-out: MIC); 2.5 µM in assay [3] (read-out: MIC (Table 7)); 2.5 µM with H. pylori strain N6 (setting [5]); 509 µg/mL and 2500 µM in the assay with H. pylori strain N6 (strain N6, read-out: MIC).
For `Cc1ncc(COP(=O)(O)O)c(C=O)c1O` [PLP, pyridoxal 5′-phosphate], the minimal inhibitory concentration (MIC) was 309 µg/mL and 1250 µM in assay [1] (read-out: MIC); 1.25 µM in assay [1] (read-out: MIC (Table 7)); 2.5 µM (≈ 0.618 µg/mL) in the assay with H. pylori strain 26695 (setting [4]); 618 µg/mL and 2500 µM in the assay on H. pylori strain 26695 (strain 26695, read-out: MIC); 2.5 µM (≈ 0.618 µg/mL) with H. pylori strain P12 (P12, read-out: MIC (Table 7)); 618 µg/mL and 2500 µM with H. pylori strain P12 (strain P12, read-out: MIC). For the same molecule, the MIC in assay [2] (read-out: MIC) was 309 µg/mL and 1250 µM; in assay [2] (read-out: MIC (Table 7)), 1.25 µM (≈ 0.309 µg/mL); in assay [3] (read-out: MIC), 309 to 618 µg/mL; in assay [3] (read-out: MIC (Table 7)), 1.25 to 2.5 µM; with H. pylori strain N6 (setting [5]), 2.5 µM (≈ 0.618 µg/mL); with H. pylori strain N6 (strain N6, read-out: MIC) it was 618 µg/mL and 2500 µM.
